Data: PubChem BioAssay (NCI)
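These data come from cells grown in 96-well plates and exposed to compound for 48 hours at five concentrations. TGI marks complete inhibition of growth.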

How the values were obtained:
Assay in all cases: NCI-60 cell line screen, 48 h
DMS 273 small cell lung = test system: DMS 273 small cell lung
HL-60(TB) leukemia = test system: HL-60(TB) leukemia
HOP-62 NSCLC = test system: HOP-62 NSCLC
MALME-3M melanoma = test system: MALME-3M melanoma
NCI-H226 lung = test system: NCI-H226 lung
OVCAR-4 ovarian = test system: OVCAR-4 ovarian
OVCAR-5 ovarian = test system: OVCAR-5 ovarian
OVCAR-8 ovarian = test system: OVCAR-8 ovarian
RPMI-8226 leukemia = test system: RPMI-8226 leukemia
SK-MEL-2 melanoma = test system: SK-MEL-2 melanoma
U251 CNS = test system: U251 CNS
UACC-62 melanoma = test system: UACC-62 melanoma
MDA-MB-231 breast = test system: MDA-MB-231 breast
NCI/ADR-RES ovarian = test system: NCI/ADR-RES ovarian

Row | Compound | TGI (DMS 273 small cell lung) | TGI (HL-60(TB) leukemia) | TGI (HOP-62 NSCLC) | TGI (MALME-3M melanoma) | TGI (NCI-H226 lung) | TGI (OVCAR-4 ovarian) | TGI (OVCAR-5 ovarian) | TGI (OVCAR-8 ovarian) | TGI (RPMI-8226 leukemia) | TGI (SK-MEL-2 melanoma) | TGI (U251 CNS) | TGI (UACC-62 melanoma) | TGI (MDA-MB-231 breast) | TGI (NCI/ADR-RES ovarian)
1 | N#CC(NNC(=O)c1ccccc1O)c1ccccc1 (centres undefined) | > 100 µM | 52.5 µM | > 100 µM | > 100 µM | 76.6 µM | > 100 µM | > 100 µM | > 100 µM | > 100 µM | > 100 µM | > 100 µM | 1.93 µM |  | 
2 | Cc1ccc(S(=O)(=O)c2c3[nH]c4ccccc4nc3n3c2nc2ccccc23)cc1 | > 100 µM | > 100 µM | > 100 µM | > 100 µM |  | > 100 µM | > 100 µM | > 100 µM | > 100 µM | > 100 µM | > 100 µM | > 100 µM |  | 
3 | COc1ccc(CCc2ccccc2CC(=O)O)cc1 | > 100 µM | > 100 µM |  | > 100 µM | > 100 µM | > 100 µM | > 100 µM | > 100 µM | > 100 µM | > 100 µM | > 100 µM | > 100 µM |  | 
4 | CCCCCCCSCC1C(=O)C23C(O)C1CCC2C12COC3(O)C(O)C1C(C)(C)CCC2O (centres undefined) | 27.3 µM | 16.3 µM | 37.9 µM | 27.4 µM | 33 µM | 25.3 µM | 31.4 µM | 31.1 µM | 27.3 µM | 29.8 µM | 22.7 µM | 24 µM |  | 
5 | C=CCCCCCC(O)C(O)C/C=C\C/C=C\CC (centres undefined) | > 18.8 µM | > 18.8 µM | > 18.8 µM | > 18.8 µM | > 18.8 µM | > 18.8 µM | > 18.8 µM | > 18.8 µM | > 18.8 µM | > 18.8 µM | > 18.8 µM | > 18.8 µM |  | 
6 | C/C(=N\NC(=S)NNC(=S)N(C)c1ccccc1)c1ccccn1 | > 100 µM |  | > 100 µM | 20.3 µM | 6.85 µM | > 100 µM | > 100 µM | > 100 µM | > 30.4 µM | > 100 µM | > 100 µM |  | > 100 µM | 55.4 µM
7 | O=C(NCCN1CCCC1)c1cn2c(ccc3sc4ccccc4c(=O)c32)n1 |  | 26.8 µM | 25.8 µM | 31.8 µM | 38.1 µM | 26.3 µM | 24.2 µM | 9.82 µM | 5.7 µM | 36 µM | > 51.7 µM | 31.3 µM | 7.52 µM | 31.2 µM
8 | Cc1ccc(CCCCCOc2ccc(C3=NCCO3)cc2)s1 |  | > 100 µM | > 100 µM | > 100 µM | > 100 µM | > 100 µM | > 100 µM | > 100 µM | > 100 µM | > 100 µM | > 100 µM | > 100 µM | > 100 µM | > 100 µM
9 | CCOC(=O)C(=CNC(=S)Nc1c(CC)cccc1CC)C(=O)OCC |  | > 100 µM | > 100 µM | > 100 µM | > 100 µM | > 100 µM | > 100 µM | > 100 µM | > 100 µM | > 100 µM | > 100 µM | > 100 µM | > 100 µM | > 100 µM
